Test results published in patent publication US11578125B2, “Anti-thyroid hormone (T4) recombinant antibody or antigen binding fragment” (Teknologian tutkimuskeskus VTT Oy, priority 2018, dated 2023).

Columns and labels:
anti-T4 Fab fragment = assay: SPR (BIAcore T200) inhibition assay, immobilized T4-AP, affinity and specificity determination; format: binding, mouse; conditions: 2 nM anti-T4 Fab preincubated with analyte, T4-AP on CM5 chip, 2% DMSO-PBSP, triplicates
Description: T4-alkaline phosphatase was immobilized to the sensor surface and Kd values were determined by inhibition assay method.
T4-AP and AP (P5931, Sigma-Aldrich, St. Louis, Mo., USA), were diluted to 100 μg/mL concentration in 10 mM sodium acetate pH 4.0 (BR100351, GE Healthcare, Piscataway, N.J., USA). T4-AP and AP were immobilized to preconditioned CM5 chip using EDC/NHS—chemistry following manufacturer's instructions. Concentration of anti-T4 Fab fragment was calculated using theoretical extinction coefficient (ExPASy ProtParam tool, web.expasy.org/protparam) of the anti-T4 Fab fragment and by measuring the A280 with NanoDrop 2000c instrument (Thermo Disher Scientific, Waltham, Mass., USA). […] Flowrate was set to 30 μl/min in all cycle steps.
Preincubated mixtures were injected over the sensor chip surface for seven minutes and dissociated for 30 seconds. […] Data collection point was set to be 10 seconds after the start of dissociation phase. All sample series were run as triplicates, where a single sample series consisted from growing small molecule concentration in the preincubation mixture. Data was reference and blank subtracted. In addition, small differences in DMSO between the samples were compensated using DMSO solvent correction series, as recommended by instrument manufacturer GE Healthcare). Concentrations of free anti-T4 Fab fragments remaining in the preincubated mixtures were calculated by comparing the obtained responses against standard curve of anti-T4 Fab fragment. Affinity constants were calculated using BIAcore T200 Evaluation Software (GE Healthcare, Piscataway, N.J., USA) applying four-parameter logistic function. (See FIGS. 4A and B and Table 1.)

anti-T4 Fab = assay: competitive ELISA, T4-BSA coated wells, 0.25 nM anti-T4 Fab pre-incubated with analyte; format: binding, mouse; conditions: for IC50: by ELISA assay, read-out: relative IC50
Description: Microtiter plate wells (Nunc, 436023) were coated with 100 μl of 4 μg/ml T4-BSA (Fitzgerald, 80-IT50) in PBS (15 mM phosphate, 150 mM NaCl, pH 7.3) for one hour at +37° C. with 600 rpm shaking. Wells were then washed three times with 300 μl PBS supplemented with 0.05% (v/v) Tween20 (Sigma-Aldrich, 93773-250G). Wells were blocked with 200 μl of Superblock® (Thermo Fisher Scientific, 37516) for 30 minutes in room temperature with 600 rpm shaking and washed as above. 100 μl of pre-incubated mixtures, containing 0.25 nM anti-T4 Fab and varying concentrations of L-thyroxine (T4) (Sigma-Aldrich, T2376) in PBSP (GE Healthcare, 28-9950-84) supplemented with 1% DMSO (v/v) (Sigma-Aldrich, D5879-100ML), were transferred to wells and incubated for 30 minutes with 600 rpm shaking in room temperature. Each sample had 12 replicates. Wells were washed as above and 100 μl of Goat anti-mouse Kappa-HRP (SoutherBiotech, 1050-05) diluted 1:1000 in Superblock was transferred to wells and incubation was carried out for 30 minutes at 600 rpm shaking in room temperature. Wells were washed as above and 100 μl of TMB Microwell Peroxidase Substrate System (2-C) (SeraCare, 50-76-00) was transferred to wells and enzymatic reaction was carried out for 30 minutes with 600 rpm shaking in room temperature. Reactions were stopped by transferring 100 μl of 1 M H3PO4 to the wells and measured at A450 using Varioskan (Thermo Fisher Scientific). Data was analysed with OriginPro 2017-software.
Assay was performed as in the previous paragraph (under title L-Thyroxine) except instead of T4 (Thyroxine) TIBPA (Tetraiodobisphenol A) was used.
Assay was performed as in the paragraph under title L-Thyroxine except instead of T4 (Thyroxine) TBBPA (Tetrabromobisphenol A) was used.
Assay was performed as in the paragraph under title L-Thyroxine except instead of T4 (Thyroxine) TCBPA (Tetrachlorobisphenol A) was used.
Assay was performed as in the paragraph under title L-Thyroxine except instead of T4 (Thyroxine) BPA (Bisphenol A) was used.

| SMILES | Kd (anti-T4 Fab fragment) | IC50 (anti-T4 Fab) | KD, anti-T4 Fab (anti-T4 Fab fragment) | competition in competitive ELISA assay (anti-T4 Fab; high concentration (5 μM)) |
| --- | --- | --- | --- | --- |
| CC(C)(c1cc(Br)c(O)c(Br)c1)c1cc(Br)c(O)c(Br)c1 [TBBPA, Tetrabromobisphenol A] | 69.2 nM | 74 nM | – | – |
| CC(C)(c1cc(Cl)c(O)c(Cl)c1)c1cc(Cl)c(O)c(Cl)c1 [TCBPA, Tetrachlorobisphenol A] | 558 nM | 544 nM | – | – |
| CC(C)(c1cc(I)c(O)c(I)c1)c1cc(I)c(O)c(I)c1 [TIBPA, Tetraiodobisphenol A] | 37.3 nM | 54 nM | – | – |
| N[C@@H](Cc1ccc(Oc2ccc(O)cc2)cc1)C(=O)O [Compound T0] | – | – | no binding | – |
| CC(C)(c1ccc(O)cc1)c1ccc(O)cc1 [BPA, Bisphenol A] | – | – | no binding | No competition was observed |
| N[C@@H](Cc1cc(I)c(Oc2cc(I)c(O)c(I)c2)c(I)c1)C(=O)O [Compound T4, 3,5,3′,5′-tetraiodothyronine] | 0.53 nM | 0.54 nM | – | – |
